Assay results from patent US7776826B2, “Method for fostering bone formation and preservation” (Unigene Laboratories, Inc., priority 2004, dated 2010).

System: Male Sprague-Dawley rats
Assay: pQCT analysis of left (ablated) and right (non-ablated) femoral shafts, Groups A-J
Type: in vivo, rat
Details: for Left femoral shaft Total density mean / Left femoral shaft Trabecular density mean: ablated femur; for new trabecular bone formation in left femoral shaft, in words: bmx, pQCT; for Right femoral shaft Total density mean / Right femoral shaft Trabecular density mean: non-ablated femur (bmx on contralateral left femur)
Source text: FIG. 4 (a-d) are graphical representations of the results of Peripheral Quantitative Computerized Tomography (PQCT) analyses of, respectively, the left (ablated) and right (non-ablated) femoral shafts of the rats which are the subject of FIG. 3 above. FIGS. 4(a) and 4(b) illustrate the trabecular bone density observed in respectively, the left and right femoral shafts of these rats, whereas, FIGS. 4(c) and 4(d) illustrate the total bone density of the respective shafts. The meanings of the abbreviations used in FIGS. 4a-4d are identical to those described above with regard to FIG. 3 (a-e);
All of the data presented above are based on analyses carried out solely of the distal epiphysis portion of the rat femurs. Subsequently, however, to avoid the above-described drawbacks associated with reading the bone density at the level of the epiphysis, the inventors undertook to further analyze the remaining portions of the animals' femur bones and particularly, areas along the length of the cortical shaft. […] In the discussion which follows, directed to the results of these additional analyses, the reader is reminded that the bone marrow ablation (bmx) technique was practiced, in all cases, only on the left femur of the test animals. That is to say, there was no ablation of the marrow portion in the right femur. Thus, in the right femur views discussed below, wherein the illustration or graph relating to the right femur is labeled with the abbreviation “bmx”, etc. to describe the modality of treatment which the rat was subjected to, one should understand such labeling to mean that the view is of a right femur, or is of a graph which presents a value obtained pursuant to the analysis of such right femur, wherein the animal's corresponding left femur underwent a bone marrow ablation treatment in the manner described herein.
FIG. 4 (a-d) graphically illustrate the formation of both trabecular bone and, to some extent, total bone, within the left femoral shaft in rats from the Groups described in Tables 1 and/or 2 above, wherein the left femur was subjected to a bmx (bone marrow ablation) treatment coupled with a concurrent and/or subsequent administration of one or more bone anabolic agents, including parathyroid hormone (PTH[1-34]-NH2) and one or more anti-resorptive agents such as salmon calcitonin. […] The effects of these last two combinations protects the significant initial bone formation induced by bmx, but not to the same extent as parathyroid hormone (PTH[1-34]-NH2) alone.
FIGS. 4(b) and 4(d) are provided to illustrate the results obtained with the same animals' corresponding right femoral shafts, i.e, in which bone marrow ablation (bmx) was not performed. Little or no new bone formation was observed, i.e, the density remained substantially constant, since the only treatment received by the right femurs was due to the systemic administration of the bone anabolic agent. The agent(s) was administered for too short a period to have, by itself, any real positive effect on the bone density. In fact, the total bone density curve for the right femoral shaft presents a substantially straight line, which is attributable to the fact that the total density measurement includes a measurement of cortical bone. Furthermore, since the anabolic agent was not administered for a period sufficient to increase cortical bone density, the total density remained unchanged.
The table additionally includes the standard deviations (“sd”) for the values obtained for each analysis, which standard deviations are also indicated in FIG. 4 (a-d).
The results set forth in FIGS. 1, 2, 4, 5, 11 and 12 and the corresponding Tables, Nos. 1, 2, 3, 4, 5 and 6 discussed above were obtained with the use of a method for mechanically inducing increased osteoblast activity as illustrated in FIGS. 14A-14D. […]

Substance	Left femoral shaft Total density mean (Day 0) [mg/mL]	Left femoral shaft Trabecular density mean (Day 0) [mg/mL]	Left femoral shaft Total density mean (Day 7) [mg/mL]	Left femoral shaft Trabecular density mean (Day 7) [mg/mL]	Left femoral shaft Total density mean (Day 14) [mg/mL]	Left femoral shaft Trabecular density mean (Day 14) [mg/mL]	Left femoral shaft Total density mean (Day 21) [mg/mL]	Left femoral shaft Trabecular density mean (Day 21) [mg/mL]	new trabecular bone formation in left femoral shaft, in words	Right femoral shaft Total density mean (Day 0) [mg/mL]	Right femoral shaft Trabecular density mean (Day 0) [mg/mL]	Right femoral shaft Total density mean (Day 7) [mg/mL]	Right femoral shaft Trabecular density mean (Day 7) [mg/mL]	Right femoral shaft Total density mean (Day 14) [mg/mL]	Right femoral shaft Trabecular density mean (Day 14) [mg/mL]	Right femoral shaft Total density mean (Day 21) [mg/mL]	Right femoral shaft Trabecular density mean (Day 21) [mg/mL]
PTH[1-34]-NH2	726.1	21.4	867.5	243.8	968.7	465.4	1046.7	511.2	greatest formation of new trabecular bone	787.2	12.9	848.2	1.5	871	13.7	864.8	10.7
salmon calcitonin [CT, reference compound]	726.1	21.4	833.6	232.2	876.2	257	833.2	163.5	Beneficial results	787.2	12.9	797.4	1.2	821.9	10.9	821.3	10.8
